Measurements from ChEMBL document CHEMBL3734724, “Anticancer efficacy of unique pyridine-based tetraindoles” (Eur J Med Chem, 2015).
pIC50: −log10 of the molar value. Active and inactive are the calls of the source. No cut-off for these calls is given here.

Key:
MDA-MB-231 [1] = assay: Antitumor activity against luciferase-expressing human MDA-MB-231 cells xenografted in ip dosed nude mouse assessed as tumor growth inhibition administered every other day measured on day 54; type: functional, organism-based
MDA-MB-231 [2] = assay: Induction of DNA damage in human MDA-MB-231 cells after 48 hrs by alkaline comet assay; type: functional, cell-based
MDA-MB-231 [3] = assay: Antimetastatic activity against luciferase-expressing human MDA-MB-231 cells xenografted in ip dosed nude mouse assessed as reduction of lung metastasis administered every other day measured on day 54; type: functional, organism-based
MDA-MB-231 [4] = assay: Cell cycle arrest in human MDA-MB-231 cells assessed as accumulation at G2/M phase at 0.4 uM after 24 hrs by propidium iodide staining-based flow cytometric analysis (reference value: 12 +/- 2%); type: functional
MDA-MB-231 [5] = assay: Cell cycle arrest in human MDA-MB-231 cells assessed as accumulation at G2/M phase after 48 hrs by propidium iodide staining-based flow cytometric analysis; type: functional
MDA-MB-231 [6] = assay: Cell cycle arrest in human MDA-MB-231 cells assessed as accumulation at sub-G1 phase at 0.8 uM after 48 hrs by propidium iodide staining-based flow cytometric analysis relative to control; type: functional
MDA-MB-231 [7] = assay: Cell cycle arrest in human MDA-MB-231 cells assessed as accumulation at G2/M phase at 0.8 uM after 24 hrs by propidium iodide staining-based flow cytometric analysis (reference value: 12 +/- 2%); type: functional
MDA-MB-231 [8] = assay: Cell cycle arrest in human MDA-MB-231 cells assessed as accumulation at S phase at 1.6 uM after 24 hrs by propidium iodide staining-based flow cytometric analysis (reference value: 32 +/- 4%); type: functional
MDA-MB-231 [9] = assay: Cell cycle arrest in human MDA-MB-231 cells assessed as accumulation at sub-G1 phase at 0.4 uM after 24 hrs by propidium iodide staining-based flow cytometric analysis relative to control; type: functional
MDA-MB-231 [10] = assay: Cell cycle arrest in human MDA-MB-231 cells assessed as accumulation at S phase at 0.8 uM after 24 hrs by propidium iodide staining-based flow cytometric analysis (reference value: 32 +/- 4%); type: functional
MDA-MB-231 [11] = assay: Downregulation of cyclin A protein expression in human MDA-MB-231 cells at 0.4 to 3.2 uM after 48 hrs by Western blot analysis relative to control; type: functional, cell-based
[12] = Cytotoxicity against human Hs578T cells assessed as growth inhibition at 20 uM after 48 hrs by MTT assay relative to control; type: functional; settings: Hs-578T, read-out: GI
Mus musculus = assay: Toxicity in nude mouse xenografted with luciferase-expressing human MDA-MB-231 cells assessed as change in body weight at 10 to 25 mg/kg, ip administered every other day measured weekly up to day 54 relative to vehicle-treated control; type: organism-based; settings: in vivo
MDA-MB-231 [13] = assay: Upregulation of Bax protein expression in human MDA-MB-231 cells after 48 hrs by Western blot analysis; type: functional, cell-based
MDA-MB-231 [14] = assay: Induction of apoptosis in human MDA-MB-231 cells assessed as DNA ladder formation at 0.4 to 3.2 uM after 24 hrs; type: functional, cell-based
MDA-MB-231 [15] = assay: Cell cycle arrest in human MDA-MB-231 cells assessed as accumulation at S phase at 0.4 uM after 48 hrs by propidium iodide staining-based flow cytometric analysis (reference value: 26 +/- 3%); type: functional
[16] = Ratio of compound IC50 to SK228 IC50 for human M10 cells; type: ADME, cell-based; settings: read-out: Ratio IC50
MDA-MB-231 [17] = assay: Cell cycle arrest in human MDA-MB-231 cells assessed as accumulation at G0/G1 phase at 0.8 uM after 24 hrs by propidium iodide staining-based flow cytometric analysis (reference value: 57 +/- 6%); type: functional
[18] = Cytotoxicity against human Hs578T cells assessed as growth inhibition after 48 hrs by MTT assay; type: functional, cell-based; settings: Hs-578T
MDA-MB-231 [19] = assay: Cell cycle arrest in human MDA-MB-231 cells assessed as accumulation at sub-G1 phase at 0.8 uM after 24 hrs by propidium iodide staining-based flow cytometric analysis relative to control; type: functional
MDA-MB-231 [20] = assay: Cell cycle arrest in human MDA-MB-231 cells assessed as accumulation at G0/G1 phase at 0.4 uM after 24 hrs by propidium iodide staining-based flow cytometric analysis (reference value: 57 +/- 6%); type: functional
[21] = Cytotoxicity against human M10 cells assessed as growth inhibition at 20 uM after 48 hrs by MTT assay relative to control; type: cell-based; settings: read-out: GI
MDA-MB-231 [22] = assay: Downregulation of Bcl-xL protein expression in human MDA-MB-231 cells after 48 hrs by Western blot analysis; type: functional, cell-based
MDA-MB-231 [23] = assay: Cell cycle arrest in human MDA-MB-231 cells assessed as accumulation at G2/M phase at 0.4 uM after 48 hrs by propidium iodide staining-based flow cytometric analysis (reference value: 16 +/- 3%); type: functional
MDA-MB-231 [24] = assay: Cell cycle arrest in human MDA-MB-231 cells assessed as accumulation at G0/G1 phase at 0.8 uM after 48 hrs by propidium iodide staining-based flow cytometric analysis (reference value: 57.8 +/- 0.7%); type: functional
MDA-MB-231 [25] = assay: Cell cycle arrest in human MDA-MB-231 cells assessed as accumulation at S phase at 0.8 uM after 48 hrs by propidium iodide staining-based flow cytometric analysis (reference value: 26 +/- 3%); type: functional
MDA-MB-231 [26] = assay: Induction of DNA damage in human MDA-MB-231 cells at 3.2 uM after 48 hrs by alkaline comet assay relative to control; type: functional
MDA-MB-231 [27] = assay: Cell cycle arrest in human MDA-MB-231 cells assessed as accumulation at S phase at 0.4 uM after 24 hrs by propidium iodide staining-based flow cytometric analysis (reference value: 32 +/- 4%); type: functional
MDA-MB-231 [28] = assay: Induction of apoptosis in human MDA-MB-231 cells assessed as DNA ladder formation at 0.2 to 3.2 uM after 48 hrs; type: functional, cell-based
[29] = Cytotoxicity against human M10 cells assessed as growth inhibition after 48 hrs by MTT assay; type: cell-based; settings: M10, 48 h
MDA-MB-231 [30] = assay: Cell cycle arrest in human MDA-MB-231 cells assessed as accumulation at G0/G1 phase at 1.6 uM after 48 hrs by propidium iodide staining-based flow cytometric analysis (reference value: 57.8 +/- 0.7%); type: functional
MDA-MB-231 [31] = assay: Antitumor activity against luciferase-expressing human MDA-MB-231 cells xenografted in nude mouse assessed as tumor growth inhibition at 25 mg/kg, ip administered every other day measured on day 54 relative to vehicle-treated control; type: functional; settings: MDA-MB-231, ip, 1296 h, read-out: TGI
MDA-MB-231 [32] = assay: Reduction of phospho-cdc2 (Tyr15) dephosphorylation in human MDA-MB-231 cells after 48 hrs by Western blot analysis; type: functional, cell-based
MDA-MB-231 [33] = assay: Cell cycle arrest in human MDA-MB-231 cells assessed as accumulation at sub-G1 phase at 1.6 uM after 48 hrs by propidium iodide staining-based flow cytometric analysis relative to control; type: functional
MDA-MB-231 [34] = assay: Cytotoxicity against human MDA-MB-231 cells assessed as growth inhibition after 48 hrs by MTT assay; type: functional, cell-based; settings: MDA-MB-231, 48 h
MDA-MB-231 [35] = assay: Cell cycle arrest in human MDA-MB-231 cells assessed as accumulation at G0/G1 phase at 1.6 uM after 24 hrs by propidium iodide staining-based flow cytometric analysis (reference value: 57 +/- 6%); type: functional

## Oc1ccc2[nH]cc(C(c3ccc(C(c4c[nH]c5ccc(O)cc45)c4c[nH]c5ccc(O)cc45)nc3)c3c[nH]c4ccc(O)cc34)c2c1
MDA-MB-231 [1]
  TGI: Dose-dependent effect
MDA-MB-231 [2]
  Activity: Dose-dependent effect
MDA-MB-231 [3]
  Activity: Dose-dependent effect
MDA-MB-231 [4]
  Activity: 13.2%
MDA-MB-231 [5]
  Activity: Dose-dependent effect
MDA-MB-231 [6]
  Activity: 12%
MDA-MB-231 [7]
  Activity: 14.7%
MDA-MB-231 [8]
  Activity: 27%
MDA-MB-231 [9]
  Activity: 0.1%
MDA-MB-231 [10]
  Activity: 31%
MDA-MB-231 [11]
  Activity: Active
[12]
  inhibition of growth at 20 µM: 25%
Mus musculus
  Activity: Non-toxic
MDA-MB-231 [13]
  Activity: Dose-dependent effect
MDA-MB-231 [14]
  Activity: inactive
MDA-MB-231 [15]
  Activity: 28%
[16]
  selectivity ratio: 4
MDA-MB-231 [17]
  Activity: 54%
[18]
  pIC50: < 4.70
MDA-MB-231 [19]
  Activity: 1.5%
MDA-MB-231 [20]
  Activity: 53%
[21]
  inhibition at 48 h, 20 µM: 37%
MDA-MB-231 [22]
  Activity: Dose-dependent effect
MDA-MB-231 [23]
  Activity: 18%
MDA-MB-231 [24]
  Activity: 49%
MDA-MB-231 [25]
  Activity: 29%
MDA-MB-231 [26]
  fold change (FC): 12
MDA-MB-231 [27]
  Activity: 33%
MDA-MB-231 [28]
  Activity: Active
[29]
  pIC50: < 4.70
MDA-MB-231 [30]
  Activity: 45%
MDA-MB-231 [31]
  inhibition in vivo at 25 mg/kg: 70%
MDA-MB-231 [32]
  Activity: Dose-dependent effect
MDA-MB-231 [33]
  Activity: 23%
MDA-MB-231 [34]
  pIC50: 6.10
MDA-MB-231 [35]
  Activity: 53%
